Legend:
KAT5 = molecular target: T1, KAT5 (Homo sapiens, UniProt Q92993); test: KAT5 enzyme inhibition assay (SAMDI mass spectrometry); type: biochemical; conditions: His-TEV-FL KAT5-Flag enzyme construct
T1 construct: His-TEV tag (N, cleaved yes); made in house

KAT6A = molecular target: T2, KAT6A (Homo sapiens, UniProt Q92794); test: KAT6A enzyme inhibition assay (SAMDI mass spectrometry); type: biochemical; conditions: His-TEV-KAT6A 501-784 enzyme construct
T2 construct: His-TEV tag (N, cleaved yes); made in house
T2 sequence (Q92794 with tags, fused parts or gaps): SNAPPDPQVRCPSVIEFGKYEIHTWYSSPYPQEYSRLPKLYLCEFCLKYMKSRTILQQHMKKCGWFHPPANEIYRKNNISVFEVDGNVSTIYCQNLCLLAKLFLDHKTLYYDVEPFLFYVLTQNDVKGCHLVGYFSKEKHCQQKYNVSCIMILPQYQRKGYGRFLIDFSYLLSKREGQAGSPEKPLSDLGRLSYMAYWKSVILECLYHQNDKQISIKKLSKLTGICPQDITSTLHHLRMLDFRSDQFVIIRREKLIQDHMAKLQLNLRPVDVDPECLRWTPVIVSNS

T1 sequence (Q92993 with tags, fused parts or gaps): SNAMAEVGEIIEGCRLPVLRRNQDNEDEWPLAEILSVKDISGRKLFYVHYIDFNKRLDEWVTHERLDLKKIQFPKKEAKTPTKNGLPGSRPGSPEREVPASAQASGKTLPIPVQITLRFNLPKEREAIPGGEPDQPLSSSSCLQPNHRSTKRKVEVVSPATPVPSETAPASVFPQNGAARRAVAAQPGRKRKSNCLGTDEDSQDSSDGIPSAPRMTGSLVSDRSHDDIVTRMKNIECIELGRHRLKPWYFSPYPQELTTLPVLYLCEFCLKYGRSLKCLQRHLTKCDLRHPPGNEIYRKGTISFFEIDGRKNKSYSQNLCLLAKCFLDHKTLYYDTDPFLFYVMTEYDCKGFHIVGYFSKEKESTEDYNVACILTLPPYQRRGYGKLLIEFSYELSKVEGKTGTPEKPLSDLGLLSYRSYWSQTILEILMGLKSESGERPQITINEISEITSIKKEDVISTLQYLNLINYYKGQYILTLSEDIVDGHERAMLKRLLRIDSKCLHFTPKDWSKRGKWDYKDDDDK

Row | Structure (SMILES) | IC50 (KAT5) [µM] | IC50 (KAT6A) [µM]
1 | Cc1cc(-c2ccccc2)cc(C(=O)NNS(C)(=O)=O)c1F [Compound I-1] | 50 to 100 | 10 to 50
2 | CCS(=O)(=O)NNC(=O)c1cc(-c2ccccc2)cc(C)c1F [Compound I-2] | 10 to 50 | 10 to 50
3 | Cc1cc(-c2ccccc2)cc(C(=O)NNS(=O)(=O)C(C)C)c1F [Compound I-3] | 10 to 50 | 50 to 100
4 | Cc1cc(-c2ccccc2)cc(C(=O)NNS(=O)(=O)C2CC2)c1F [Compound I-4] | 50 to 100 | 50 to 100
5 | Cc1cc(-c2ccccc2)cc(C(=O)NNS(=O)(=O)Cc2cccc(Cl)c2)c1F [Compound I-5] | ≤ 10 | ≤ 10
6 | Cc1cc(-c2ccccc2)cc(C(=O)NNS(=O)(=O)Cc2ccc(Cl)cc2)c1F [Compound I-6] | ≤ 10 | ≤ 10
7 | Cc1cc(-c2ccccc2)cc(C(=O)NNS(=O)(=O)C2CCC2)c1F [Compound I-7] | 10 to 50 | 10 to 50
8 | Cc1cc(-c2ccccc2)cc(C(=O)NNS(=O)(=O)Cc2ccccc2Cl)c1F [Compound I-8] | ≤ 10 | ≤ 10
9 | Cc1cc(-c2ccccc2)cc(C(=O)NNS(=O)(=O)Cc2ccccc2)c1F [Compound I-9] | ≤ 10 | ≤ 10
10 | O=C(NNS(=O)(=O)c1ccccc1)c1c(F)ccc(-c2ccccc2)c1F [Compound I-10] | > 100 | > 100
11 | O=S(=O)(NNc1nc2ccccc2[nH]1)c1ccccc1 [Compound I-12] | > 100 | > 100
12 | Cn1c(NNS(=O)(=O)c2ccccc2)nc2ccccc21 [Compound I-13] | > 100 | > 100
13 | O=C(NNS(=O)(=O)c1ccccc1)c1cc(-c2ccccc2)cc2cc[nH]c12 [Compound I-14] | 10 to 50 | 10 to 50
14 | CC1CCCC(C)N1C(=O)NNS(=O)(=O)c1ccccc1 (centres unmarked) [Compound I-15] | > 100 | > 100
15 | O=C(NNS(=O)(=O)c1ccccc1)c1cc(-c2ccccc2)cc2[nH]ccc12 [Compound I-16] | > 100 | 50 to 100
16 | Cn1ccc2c(C(=O)NNS(=O)(=O)c3ccccc3)cc(-c3ccccc3)cc21 [Compound I-17] | 50 to 100 | > 100
17 | Cc1cc(-c2ccccc2)cc(C(=O)NNS(=O)(=O)C2CCCCC2)c1F [Compound I-18] | ≤ 10 | ≤ 10
18 | Cc1cc(-c2ccccc2)cc(C(=O)NNS(=O)(=O)C2CCCC2)c1F [Compound I-19] | ≤ 10 | 10 to 50
19 | Cn1ncc2c(C(=O)NNS(=O)(=O)c3ccccc3)cc(-c3ccccc3)cc21 [Compound I-20] | > 100 | > 100
20 | Cc1cc(-c2ccccc2)cc(C(=O)NNS(=O)(=O)C(C)(C)C)c1F [Compound I-21] | > 100 | > 100
21 | COc1ccccc1CN1CC(S(=O)(=O)NNC(=O)c2cc(-c3ccccc3)cc(C)c2F)C1 [Compound I-22, N′-(4-fluoro-5-methyl-[1,1′-biphenyl]-3-carbonyl)-1-(2-methoxybenzyl)azetidine-3-sulfonohydrazide] | 10 to 50 | 10 to 50
22 | Cc1cc(-c2ccccc2)cc(C(=O)NNS(=O)(=O)C2CCNC2)c1F (centres unmarked) [Compound I-23] | 10 to 50 | 10 to 50
23 | Cc1cc(-c2ccccc2)cc(C(=O)NNS(=O)(=O)C2CCN(Cc3ccc(Cl)cc3)C2)c1F (centres unmarked) [Compound I-24] | 10 to 50 | 10 to 50
24 | COc1ccccc1CN1CCC(S(=O)(=O)NNC(=O)c2cc(-c3ccccc3)cc(C)c2F)C1 (centres unmarked) [Compound I-25] | 10 to 50 | 10 to 50

Row | Structure (SMILES) | IC50 (KAT5) [µM] | IC50 (KAT6A) [µM]
25 | COc1cccc(CN2CCC(S(=O)(=O)NNC(=O)c3cc(-c4ccccc4)cc(C)c3F)C2)c1 (centres unmarked) [Compound I-26] | ≤ 10 | ≤ 10
26 | COc1ccc(CN2CCC(S(=O)(=O)NNC(=O)c3cc(-c4ccccc4)cc(C)c3F)C2)cc1 (centres unmarked) [Compound I-27] | 10 to 50 | 10 to 50
27 | Cc1cc(-c2ccccc2)cc(C(=O)NNS(=O)(=O)C2CN(Cc3cccc(Cl)c3)C2)c1F [Compound I-28] | > 100 | > 100
28 | Cc1cc(-c2ccccc2)cc(C(=O)NNS(=O)(=O)C2CCN(Cc3ccccc3Cl)C2)c1F (centres unmarked) [Compound I-29] | ≤ 10 | ≤ 10
29 | Cc1cc(-c2ccccc2)cc(C(=O)NNS(=O)(=O)C2CCN(Cc3cccc(Cl)c3)C2)c1F (centres unmarked) [Compound I-30] | 10 to 50 | 10 to 50
30 | Cc1cc(-c2ccccc2)cc(C(=O)NNS(=O)(=O)C2CCN(C)C2)c1F (centres unmarked) [Compound I-31] | 50 to 100 | 10 to 50
31 | Cc1cc(-c2ccccc2)cc(C(=O)NNS(=O)(=O)C2CCN(C(=O)c3ccccc3)C2)c1F (centres unmarked) [Compound I-32] | 10 to 50 | ≤ 10
32 | Cc1cc(-c2ccccc2)cc(C(=O)NNS(=O)(=O)C2CCN(Cc3ccccc3)C2)c1F (centres unmarked) [Compound I-33] | 10 to 50 | 10 to 50
33 | Cc1cc(-c2ccccc2)cc(C(=O)NNS(=O)(=O)C2CN(C(=O)c3ccccc3)C2)c1F [Compound I-34] | 10 to 50 | 10 to 50
34 | Cc1cc(-c2ccccc2)cc(C(=O)NNS(=O)(=O)C2CCN(CCc3ccccc3)C2)c1F (centres unmarked) [Compound I-36] | 10 to 50 | 10 to 50
35 | Cc1cc(-c2ccccc2)cc(C(=O)NNS(=O)(=O)C2CN(Cc3ccccc3Cl)C2)c1F [Compound I-37] | 10 to 50 | 10 to 50
36 | Cc1cccc(C(=O)NNS(=O)(=O)Cc2ccccc2)c1F [Compound I-39] | 10 to 50 | > 100
37 | CC(=O)N1CC(S(=O)(=O)NNC(=O)c2cc(-c3ccccc3)cc(C)c2F)C1 [Compound I-40] | 50 to 100 | 10 to 50
38 | Cc1cc(-c2ccccc2)cc(C(=O)NNS(=O)(=O)C2CN(CCO)C2)c1F [Compound I-42] | 50 to 100 | 10 to 50
39 | COCCN1CC(S(=O)(=O)NNC(=O)c2cc(-c3ccccc3)cc(C)c2F)C1 [Compound I-43] | 50 to 100 | 10 to 50
40 | O=S(=O)(NNc1n[nH]c2ccccc12)c1ccccc1 [Compound I-44] | > 100 | > 100
41 | O=S(=O)(NNc1n[nH]c2cccc(F)c12)c1ccccc1 [Compound I-45] | > 100 | > 100
42 | O=S(=O)(NNc1n[nH]c2ccc(-c3ccccc3)cc12)c1ccccc1 [Compound I-46] | > 100 | > 100
43 | Cn1nc(NNS(=O)(=O)c2ccccc2)c2cc(-c3ccccc3)ccc21 [Compound I-47] | > 100 | > 100
44 | O=S(=O)(NNc1n[nH]c2c(F)cccc12)c1ccccc1 [Compound I-48] | > 100 | > 100
45 | Cn1nc(NNS(=O)(=O)c2ccccc2)c2cccc(-c3ccccc3)c21 [Compound I-49] | > 100 | > 100
46 | O=S(=O)(NNc1n[nH]c2c(-c3ccccc3)cccc12)c1ccccc1 [Compound I-50] | 50 to 100 | > 100
47 | O=C(NNS(=O)(=O)c1ccccc1)c1cc(-c2ccccc2)cc2[nH]cnc12 [Compound I-53] | 10 to 50 | 10 to 50
48 | Cc1cc(-c2ccccc2)cc(C(=O)NNS(=O)(=O)C2COC2)c1F [Compound I-55] | 10 to 50 | 10 to 50

Row | Structure (SMILES) | IC50 (KAT5) [µM] | IC50 (KAT6A) [µM]
49 | Cc1cc(-c2ccccc2)cc(C(=O)NNS(=O)(=O)C2CN(Cc3ccccc3)C2)c1F [Compound I-61] | > 100 | 10 to 50
50 | Cc1cc(-c2ccccc2)cc(C(=O)NNS(=O)(=O)C2CN(CCc3ccccc3)C2)c1F [Compound I-62] | > 100 | 10 to 50
51 | Cc1cc(-c2ccccc2)cc(C(=O)NNS(=O)(=O)C2CN(Cc3ccc(Cl)cc3)C2)c1F [Compound I-63] | > 100 | > 100
52 | O=S(=O)(Nc1ncc(-c2ccccc2F)[nH]1)c1ccccc1 [Compound I-65] | > 100 | > 100
53 | O=S(=O)(Nc1ncc(-c2cc(-c3ccccc3)ccc2F)[nH]1)c1ccccc1 [Compound I-67] | > 100 | > 100
54 | Cc1cc(-c2ccccc2)cc(C(=O)N2CCC(S(=O)(=O)c3ccccc3)C2)c1F (centres unmarked) [Compound I-73] | > 100 | > 100
55 | Cc1cc(-c2ccccc2)cc(C(=O)NCCS(=O)(=O)Nc2ccccc2)c1F [Compound I-75] | 50 to 100 | 10 to 50
56 | COc1ccccc1CS(=O)(=O)NNC(=O)c1cc(-c2ccccc2)cc(C)c1F [Compound I-79] | ≤ 10 | ≤ 10
57 | COc1cccc(CS(=O)(=O)NNC(=O)c2cc(-c3ccccc3)cc(C)c2F)c1 [Compound I-80] | ≤ 10 | ≤ 10
58 | COc1ccc(CS(=O)(=O)NNC(=O)c2cc(-c3ccccc3)cc(C)c2F)cc1 [Compound I-81] | 50 to 100 | 10 to 50
59 | O=C(NNS(=O)(=O)c1ccc2ccccc2c1)c1ccccc1 [Compound I-146] | > 100 | –
60 | Cc1cc(-c2ccccc2)cc(C(=O)NNS(=O)(=O)c2ccccc2)c1F [Compound I-157] | ≤ 10 | –
61 | O=C(NNS(=O)(=O)c1ccccc1F)c1ccccc1 [Compound I-163] | > 100 | –
62 | COc1ccc(S(=O)(=O)NNC(=O)c2ccccc2F)cc1 [Compound I-179] | > 100 | –
63 | O=C(NNS(=O)(=O)c1ccccc1)c1ccc(Cl)cc1 [Compound I-181] | > 100 | –
64 | COc1cccc(C(=O)NNS(=O)(=O)c2ccccc2)c1 [Compound I-182] | > 100 | –
65 | O=C(NNS(=O)(=O)c1ccccc1)c1cccc(F)c1 [Compound I-191] | > 100 | –
66 | Cc1cc(-c2ccccc2)cc(C(=O)NNS(=O)(=O)c2cccc(C3CC3)c2)c1F [Compound I-201] | > 100 | –
67 | Cc1cc(-c2ccccc2)cc(C(=O)NNS(=O)(=O)c2cccc(C(C)C)c2)c1F [Compound I-218] | > 100 | –
68 | O=C(NNS(=O)(=O)c1ccc2ccccc2c1)c1ccccc1F [Compound I-238] | 50 to 100 | –
69 | O=C(NNS(=O)(=O)CC1CCOCC1)c1cc(C2CCCO2)cc(Cl)c1F (centres unmarked) [Compound I-506] | ≤ 10 | –
70 | CC(C)n1nc(CNC(=O)CNS(=O)(=O)c2ccccc2)c2ccccc21 [Compound I-525] | > 100 | –
